Test results: US20260265055A1, “Sulfine-Based Compounds for Generating Hydrogen Persulfide” (Brown University, priority 2023, published 2026)

Tests used:
[1] = Monitoring H2S2 formation from the TTS-TAGDD hybrid compound 3 (SSP4, 12 h); conditions: over 12 hours
Experimental: Monitoring H2S2 formation from the TTS-TAGDD hybrid compound 3: TTS and 3 were prepared as 1 mM solutions in DMSO. L-cysteine and Na2S2 were prepared at 4 mM and 1 mM in MilliQ H2O, respectively. SSP4 was dissolved in DMSO to obtain a 200 μM stock solution. CTAB was dissolved in ethanol to yield a 2 mM stock solution. 50 mM PBS buffer (pH 7.4) was added to individual wells of a black polystyrene, flat-bottomed clear 96-well plate, followed by TTS (25 μM) or 3 (25 μM) then cysteine (100 μM) or Na2S2 (25 μM). Samples were mixed by pipetting up and down and incubated in the dark at room temperature (rt) for 30 min. Next, CTAB (50 μM) was added to all wells followed by SSP4 (5 μM), and samples were mixed by pipetting up and down. Samples were then incubated in the dark at room temperature for another 30 min before being measured on a Molecular Devices SpectraMax iD3 Multi-Mode Microplate Reader (fluorescence mode; kinetics measurement type; emission 535 nm; excitation 485 nm; integration time […], low PMT sensitivity, attenuation 1, read height 1.00 mm; total run time: 12 hours; 25 cycles; interval: 0.5 hours). Data was graphed as a time dependent fluorescence response, with F0 as the SSP4 only condition. The fluorescence of Na2S2 over time was not represented in the line graph presented due to the compound's known instability. Data obtained from the 12 h time point including from Na2S2 was also represented in a bar graph for greater clarity. Results were expressed as mean±SEM (n=3).

GAPDH = target: T1, GAPDH (Oryctolagus cuniculus, UniProt P46406); test: GAPDH protein S-persulfidation (SSP4 fluorescence, LC-MS/MS); format: biochemical, rabbit; conditions: reduced GAPDH 100 μM treated with the reagent only (1 mM)
T1 construct: GAPDH (from rabbit muscle, #G2267, Sigma-Aldrich); purchased Sigma-Aldrich G2267; host or cells: rabbit muscle (tissue-purified)
T1 sequence (P46406 whole entry): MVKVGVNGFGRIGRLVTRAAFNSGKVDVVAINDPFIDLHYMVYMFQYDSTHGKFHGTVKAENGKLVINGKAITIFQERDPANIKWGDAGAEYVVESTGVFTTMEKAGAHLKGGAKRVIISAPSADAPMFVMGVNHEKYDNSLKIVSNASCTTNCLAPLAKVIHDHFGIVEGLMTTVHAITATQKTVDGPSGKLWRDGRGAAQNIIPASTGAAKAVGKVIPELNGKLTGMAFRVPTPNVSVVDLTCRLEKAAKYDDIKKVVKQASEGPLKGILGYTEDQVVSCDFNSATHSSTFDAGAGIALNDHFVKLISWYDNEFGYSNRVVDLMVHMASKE
Experimental: One of the primary functions of H2S2 is to induce protein S-persulfidation. Existing methods treat proteins with Na2S2 directly to obtain the persulfidated proteins. The present disclosure contemplates the use of TTS and H2S to persulfidate proteins as a comparison with Na2S2. GAPDH was used as the protein model and its persulfidation was evaluated by SSP4 using a protocol described in Shieh, M. et al., Shining a light on SSP4: a comprehensive analysis and biological applications for the detection of sulfane sulfurs. Redox Biol. 2022, 56, 102433 and Ni, X. et al., A sweet H2S/H2O2 dual release system and specific protein S-persulfidation mediated by thioglucose/glucose oxidase. J. Am. Chem. Soc. 2021, 143, 13325-13332. Reduced GAPDH (100 μM) was individually treated with 10 eq. of TTS+Na2S or Na2S2, as well as control reagents (TTS or Na2S only). The protein samples were then purified using Zeba Spin Desalting Columns (7K MWCO), diluted (to 10 μM), and treated with SSP4 (5 μM). Fluorescence signals were recorded to reflect persulfidation levels. […] To provide further evidence of persulfidation in the GAPDH system, TTS+Na2S-treated GAPDH was alkylated with HPE-IAM to stabilize the protein persulfides.
216 μL of PBS (50 mM, pH 7.4) was added to 3.9 mg of GAPDH (from rabbit muscle, #G2267, Sigma-Aldrich) to obtain a concentration of 500 μM (MW: 36 kDa). DTT (10 mM in DMSO, 11.35 μL) was added for a final equal concentration with the GAPDH. The solution was incubated in the dark at room temperature for 30 min. Zeba 7K MWCO spin columns were prepared and used according to manufacturer's instructions with 3 PBS washes. Excess reductant was removed by column purification with the Zeba 7K MWCO columns. The resulting reduced protein concentration was determined by the absorbance at 280 nm (εmM=30.4 mM-1 cm-1) using the Nanodrop One Microvolume UV-Vis Spectrophotometer (ThermoFisher Scientific). For controls, reduced GAPDH was treated with NEM (1:5 equiv.) and incubated at rt in the dark for 30 min before excess NEM was removed by the Zeba 7K MWCO columns. Next, the reduced protein was diluted to a final concentration of 100 μM in a final volume of 100 μL and treated with TTS (10 μL of 10 mM in DMSO for a final concentration of 1 mM), Na2S (10 μL of 10 mM in MilliQ H2O for a final concentration of 1 mM), both TTS and Na2S, or Na2S2 (10 μL of 10 mM in MilliQ H2O for a final concentration of 1 mM). For example, if the reduced protein (361 μM) was only to be treated with TTS, 62.3 μL of PBS (50 mM, pH 7.4) would first be added to an Eppendorf tube, followed by 27.7 μL of protein, and followed by 10 μL of TTS. TTS+Na2S and Na2S2 samples were also prepared at the concentrations above without any protein, where PBS (50 mM, pH 7.4) was used in place of the proteins (volume-wise). Samples were incubated at room temperature for 30 min in the dark before being purified by Zeba 7K MWCO columns (three times to ensure proper removal of excess treatment molecules) and quantified by absorbance. […] All samples were then incubated with SSP4 (5 μL of 100 μM in DMSO for a final concentration of 5 μM) in individual wells of a black clear flat bottom 96-well plate. The final volume was 100 μL. For example, if the persulfidated protein (99.5 μM) was to be examined, 84.95 μL of PBS (50 mM, pH 7.4) would first be added to a well, followed by 10.05 μL of protein, and then followed by 5 μL of SSP4. Incubation occurred at room temperature in the dark for 30 min before being measured on the SpectraMax iD3 microplate reader (ex: 485 nm; em: 525 nm).

HeLa cells = test: Live cell imaging of H2S2 formation with SSP4; format: cell-based; conditions: compound only, 30 min
Experimental: HeLa cells were seeded at ~7000 cells/well in a 96-well clear flat-bottomed BioLite plate (ThermoFisher Scientific, #130188) in DMEM/F12 (1:1) (Gibco, Invitrogen, #11330-032) medium supplemented with 10% fetal bovine serum (FBS) at 37° C., 5% CO2 overnight.
Preparation before cell treatment: Na2S and Na2S2 stocks were prepared at 10 mM in sterile 1×PBS. TTS and TT were prepared at 10 mM concentrations in DMSO. They were then diluted to 50 μM concentrations in serum-free Fluorobrite DMEM in individual Eppendorf tubes (0.5% DMSO). Na2S (final concentration=100 μM) was added to the Eppendorf tube containing Fluorobrite DMEM and TTS or TT immediately before being added to the cells. Compounds were mixed by pipetting up and down prior to cell addition.
Cell treatment: Culturing media was aspirated from all wells, and cells were washed twice with 1×PBS. Compounds were added to cells (200 μL/well) and incubated for 30 min at 37° C., 5% CO2. While cells were incubating, SSP4 treatment was prepared by first adding 5 mM CTAB in ethanol to Fluorobrite DMEM followed by 6.125 mM SSP4 in DMSO to final concentrations of 100 μM and 5 μM, respectively, in a tube. The final volume was 5 mL (0.08% DMSO). Compounds were mixed by pipetting up and down prior to cell addition. After incubation, media was aspirated, and cells were washed twice with 1×PBS. SSP4 treatment was added to all wells (100 μL/well), and cells were incubated for 30 min at 37° C., 5% CO2 for 30 min. Media was then aspirated, and cells were washed three times with 1×PBS. Fluorobrite DMEM was added to all wells before imaging on the Keyence All-in-One Fluorescence Microscope (BZ-X810) (excitation: 470/40 nm; emission: 525/50 nm).
As shown in FIGS. 4(A)-(D), HeLa cells were treated with TTS, TTS+H2S, or TT for 30 min before the fluorescent sensor SSP4 was applied to the cells to monitor the formation of H2S2. […] Na2S2 was used as the positive control in this study (FIG. 4D). Other control studies including TT+H2S, H2S only, and SSP4 only were also performed. […] FIG. 4H is a graph of fluorescence intensities of SSP4 staining. Data are mean values ±SEM calculated using ImageJ. (n=9, where three different images were obtained from each of three samples and quantified).

Structure (SMILES) | H2S2 formation monitored by SSP4 signals ([1]; 25 μM compound + Cys 100 μM) | SSP4 fluorescence ([1]; 25 μM compound only) | SSP4 fluorescence of persulfidated GAPDH (GAPDH) | SSP4 fluorescence in HeLa cells (HeLa cells)
CC(=O)SC(SC(C)=O)c1cccc(OC(=O)c2ccc(=S=O)sc2)c1 [Compound 3] | steady and continuous H2S2 formation | did not give any notable fluorescence | – | –
[Na+].[Na+].[S-][S-] [Na2S2, reference compound] | – | – | strong fluorescence | –
[Na+].[Na+].[S-2] [Na2S, reference compound] | – | – | did not give any notable fluorescence | Obvious fluorescence in these samples was not observed
